Each block holds one molecule with its values, some of them ahead of it.
Tests used:
[1] = Color development of DHA/glycine compositions by spectrophotometer at 400 nm; settings: for enhancement in tanning: Example 6, conclusion from 6 and 27 hour results, DHA 5%, glycine 5%
Description: Color development for the above was also assessed using a spectrophotometer set at a wavelength of 400 nm. […] Compositions comprising KOjic acid or Allomaltol were made by mixing the following ingredients at room temperature. […] Visual observation and photographs were taken after 27 hours of mixing. […] 35%, 38% and 19%, respectively, as determined by assessing the Samples with a Spectrophotometer, wavelength 400 nm. […] Compositions were made by mixing the following ingredients at room temperatures. […] All percents are by weight. The Samples were assessed for color development (with a Spectrophometer, 400 nm wavelength) three (3) days after mixing. […] The following compositions were mixed in a manner similar to the one described in Example 7. The Samples were assessed (with a Spectrophotometer, 400 nm wavelength) fifteen (15) hours after mixing.

[2] = Visual observation and photographs of tanning rate (color formation) in DHA/glycine compositions; settings: Allomaltol 0.5-3 wt.% added to 5% DHA, 5% glycine in water; visual observations and photographs
Text: (§1) Compositions comprising Allomaltol were made by mixing the following: […]

[3] = Dissolution of Allomaltol in the aqueous composition; type: physicochemical; settings: 3 wt.% Allomatol in 5% DHA, 5% glycine, balance water (Example 3 Sample 5)
Text: as §1

[4] = 400 nm, after 20 hours of mixing, 5% DHA, 5% glycine

Structure (SMILES): O=c1cc(CO)occ1O [Kojic acid]
enhancement in tanning [1]: enhancement in tanning

color body generation with glycine and no DHA ([1]; Example 8, 0.5% adjuvant, 5% glycine, fifteen hours after mixing): No color body generation
Structure (SMILES): Cc1cc(=O)c(NCC(=O)O)co1 [adjuvant]

Structure (SMILES): O=c1cc(CCl)occ1O [chlorinated adjuvant]
color body generation with glycine and no DHA ([1]; Example 7, 0.25% chlorinated adjuvant, 5% glycine, three days after mixing): No color body generation

Allomatol dissolved [3]: ***= circa 95% Allomatol was dissolved.
Structure (SMILES): Cc1cc(=O)c(O)co1 [Allomaltol, 3-hydroxy-6-methyl, 4-pyrone]
color development at 3% Allomaltol greater than at 0.5% Allomaltol [1, 4]: 45% | color development at 3% Allomaltol greater than at 1% Allomaltol [1, 4]: 40% | color development at 3% Allomaltol greater than at 2% Allomaltol [1, 4]: 20% | color development at 3% Allomaltol greater than composition deplete of adjuvant [1, 4]: 60% | enhancement in tanning [1]: enhancement in tanning | tanning rate (color formation) [2]: enhanced
